How the values were obtained:
Experiment in all cases: relative viability (nuclei count vs DMSO), 5 days (fraction); higher = more cells survive
EMC-BAC-2 = test system: EMC-BAC-2
In short: (§1)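 Lung cancer cell lines were seeded in 1536-well plates and dosed by pin tool the next day, with either a single drug or a fixed anchor-drug dose combined with five library-drug doses (not always all listed) spaced in √10 steps. Five days later, one step fixed the cells and stained their nuclei (final 0.05% Triton X-100, 1% formaldehyde, 1 ug/ml Hoechst), and nuclei were counted on 4× images. Relative viability is the nuclei count in treated wells divided by the count in vehicle wells, and each value is the median of duplicate plates.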

NCI-H2347 = test system: NCI-H2347
In short: as §1

NCI-H727 = test system: NCI-H727
In short: as §1

NCI-H1993 = test system: NCI-H1993
In short: as §1

NCI-H1734 = test system: NCI-H1734
In short: as §1

NCI-H2009 = test system: NCI-H2009
In short: as §1

NCI-H1915 = test system: NCI-H1915
In short: as §1

LXF-289 = test system: LXF-289
In short: as §1

EPLC-272H = test system: EPLC-272H
In short: as §1

NCI-H1563 = test system: NCI-H1563
In short: as §1

NCI-H322M = test system: NCI-H322M
In short: as §1

`Cc1sc2c(c1C)C(c1ccc(Cl)cc1)=N[C@@H](CC(=O)OC(C)(C)C)c1nnc(C)n1-2` [JQ1] + C[C@]1(O)C[C@@H](c2nc(-c3ccc4ccc(-c5ccccc5)nc4c3)c3c(N)nccn32)C1 [Linsitinib] (partner 1 µM) was tested. Which relative viability (EMC-BAC-2; first compound 0.04 µM) did it give?
The relative viability was 0.815.

And the relative viability (EMC-BAC-2; first compound 0.1265 µM)?
The relative viability was 0.812.

And the relative viability (EMC-BAC-2; first compound 0.4 µM)?
The relative viability was 0.659.

What about the relative viability (EMC-BAC-2; first compound 1.265 µM) of the same compound?
Its relative viability is 0.444.

What about the relative viability (EMC-BAC-2; first compound 4 µM) of the same compound?
Its relative viability is 0.47.

What about the relative viability (NCI-H2347; first compound 0.04 µM) of the same compound?
Its relative viability is 0.934.

And the relative viability (NCI-H2347; first compound 0.1265 µM)?
The relative viability was 0.747.

And the relative viability (NCI-H2347; first compound 0.4 µM)?
Its relative viability is 0.743.

What about the relative viability (NCI-H2347; first compound 1.265 µM) of the same compound?
The relative viability was 0.632.

What about the relative viability (NCI-H2347; first compound 4 µM) of the same compound?
Its relative viability is 0.45.

What about the relative viability (NCI-H727; first compound 0.04 µM) of the same compound?
The relative viability was 0.374.

And the relative viability (NCI-H727; first compound 0.1265 µM)?
The relative viability was 0.313.

And the relative viability (NCI-H727; first compound 0.4 µM)?
The relative viability was 0.343.

And the relative viability (NCI-H727; first compound 1.265 µM)?
The relative viability was 0.244.

And the relative viability (NCI-H727; first compound 4 µM)?
The relative viability was 0.234.

What about the relative viability (NCI-H1993; first compound 0.04 µM) of the same compound?
Its relative viability is 0.729.

And the relative viability (NCI-H1993; first compound 0.1265 µM)?
Its relative viability is 0.855.

And the relative viability (NCI-H1993; first compound 0.4 µM)?
The relative viability was 0.809.

What about the relative viability (NCI-H1993; first compound 1.265 µM) of the same compound?
The relative viability was 0.829.

And the relative viability (NCI-H1993; first compound 4 µM)?
The relative viability was 0.736.

And the relative viability (NCI-H1734; first compound 0.04 µM)?
The relative viability was 0.831.

And the relative viability (NCI-H1734; first compound 0.1265 µM)?
The relative viability was 0.823.

What about the relative viability (NCI-H1734; first compound 0.4 µM) of the same compound?
The relative viability was 0.879.

And the relative viability (NCI-H1734; first compound 1.265 µM)?
Its relative viability is 0.63.

And the relative viability (NCI-H1734; first compound 4 µM)?
The relative viability was 0.418.

And the relative viability (NCI-H2009; first compound 0.04 µM)?
Its relative viability is 1.13.

What about the relative viability (NCI-H2009; first compound 0.1265 µM) of the same compound?
Its relative viability is 0.995.

And the relative viability (NCI-H2009; first compound 0.4 µM)?
Its relative viability is 0.724.

What about the relative viability (NCI-H2009; first compound 1.265 µM) of the same compound?
The relative viability was 0.279.

What about the relative viability (NCI-H2009; first compound 4 µM) of the same compound?
The relative viability was 0.263.

What about the relative viability (NCI-H1915; first compound 0.04 µM) of the same compound?
Its relative viability is 1.15.

And the relative viability (NCI-H1915; first compound 0.1265 µM)?
The relative viability was 0.966.

What about the relative viability (NCI-H1915; first compound 0.4 µM) of the same compound?
The relative viability was 1.08.

What about the relative viability (NCI-H1915; first compound 1.265 µM) of the same compound?
The relative viability was 0.652.

What about the relative viability (NCI-H1915; first compound 4 µM) of the same compound?
Its relative viability is 0.383.

What about the relative viability (LXF-289; first compound 0.04 µM) of the same compound?
Its relative viability is 0.986.

What about the relative viability (LXF-289; first compound 0.1265 µM) of the same compound?
The relative viability was 0.968.

And the relative viability (LXF-289; first compound 0.4 µM)?
The relative viability was 0.903.

What about the relative viability (LXF-289; first compound 1.265 µM) of the same compound?
The relative viability was 0.761.

What about the relative viability (LXF-289; first compound 4 µM) of the same compound?
Its relative viability is 0.34.

And the relative viability (EPLC-272H; first compound 0.04 µM)?
Its relative viability is 1.14.

And the relative viability (EPLC-272H; first compound 0.1265 µM)?
Its relative viability is 1.07.

And the relative viability (EPLC-272H; first compound 0.4 µM)?
Its relative viability is 1.12.

And the relative viability (EPLC-272H; first compound 1.265 µM)?
Its relative viability is 0.502.

What about the relative viability (EPLC-272H; first compound 4 µM) of the same compound?
Its relative viability is 0.418.

And the relative viability (NCI-H1563; first compound 0.04 µM)?
Its relative viability is 1.28.

And the relative viability (NCI-H1563; first compound 0.1265 µM)?
The relative viability was 1.1.

And the relative viability (NCI-H1563; first compound 0.4 µM)?
Its relative viability is 0.976.

What about the relative viability (NCI-H1563; first compound 1.265 µM) of the same compound?
The relative viability was 0.722.

What about the relative viability (NCI-H1563; first compound 4 µM) of the same compound?
The relative viability was 0.646.

And the relative viability (NCI-H322M; first compound 0.04 µM)?
The relative viability was 0.546.

And the relative viability (NCI-H322M; first compound 0.1265 µM)?
The relative viability was 0.935.

And the relative viability (NCI-H322M; first compound 0.4 µM)?
The relative viability was 0.874.

And the relative viability (NCI-H322M; first compound 1.265 µM)?
The relative viability was 0.474.
